Laboratory results from US20250186410A1, “DUAL INHIBITORS OF TRYPTOPHAN DIOXYGENASES (IDO1 AND TDO) AND THEIR USE IN THERAPY” (ANTIDO THERAPEUTICS INTERNATIONAL SÀRL, priority 2022, published 2025).

Tested on: lung cancer cell line S (cisplatin-sensitive)
Test: Growth inhibition and cytotoxicity assay (trypan blue), S cells
Type: cell-based
Conditions: Homo sapiens
Procedure: In this study 3 different human-derived lung cancer cell lines were exposed to vehicle control (parental cells B, S and A) or long-term incubation with cisplatin (BC, SC and ALC cells). Long-term incubation with cisplatin induced cisplatin-resistance in the BC, SC and ALC cell lines.
Cells were seeded in 24-well dishes and treated with various concentrations of inhibitors (i.e. Epacadostat or AT-0174). Briefly, the culture media as well as the trypsinized cells were collected and this mixture was centrifuged at 400×g for 5 min. The supernatant was discarded, re-suspended in 1 mL of Hank's buffer, and assayed for live cells and death cells using trypan blue exclusion method.
Data from in vitro experiments were performed from three separate biological replicates which were isolated and analyzed in technical triplicates. Separate measurements using the two-tailed t-test and the results were expressed as mean±standard deviation.

SMILES: Nc1noc2nc(Cl)c(F)cc12 [Compound 66, 6-Chloro-5-fluoroisoxazolo[5,4-b]pyridin-3-amine]
- viability at 12.5 µM (12.5 μM AT-0174): 78 ± 7.1%
- viability at 25 µM (25.0 μM AT-0174): 96.8 ± 19.1%
- viability at 50 µM (50.0 μM AT-0174): 70.2 ± 14%
